B1: YDR541c: Saccharomyces cerevisiae carbonyl reductase homolog, SEQ ID NO: 25, expressed in E. coli from pSE-YDR1 (protein, listed as Saccharomyces cerevisiae)
chain: MSNTVLVSGASGFIALHILSQLLKQDYKVIGTVRSHEKEAKLLRQFQHNPNLTLEIVPDISHPNAFDKVLQKRGREIRYVLHTASPFHYDTTEYEKDLLIPALEGTKNILNSIKKYAADTVERVVVTSSCTAIITLAKMDDPSVVFTEESWNEATWESCQIDGINAYFASKKFAEKAAWEFTKENEDHIKFKLTTVNPSLLFGPQLFDEDVHGHLNTSCEMINGLIHTPVNASVPDFHSIFIDVRDVALAHLYAFQKENTAGKRLVVTNGKFGNQDILDILNEDFPQLRGLIPLGKPGTGDQVIDRGSTTDNSATRKILGFEFRSLHESVHDTAAQILKKENRL
B2: YGL157w: Saccharomyces cerevisiae carbonyl reductase homolog, SEQ ID NO: 17, expressed in E. coli from pSE-YGP7 (protein, listed as Saccharomyces cerevisiae)
chain: MTTDTTVFVSGATGFIALHIMNDLLKAGYTVIGSGRSQEKNDGLLKKFNNNPKLSMEIVEDIAAPNAFDEVFKKHGKEIKIVLHTASPFHFETTNFEKDLLTPAVNGTKSILEAIKKYAADTVEKVIVTSSTAALVTPTDMNKGDLVITEESWNKDTWDSCQANAVAAYCGSKKFAEKTAWEFLKENKSSVKFTLSTINPGFVFGPQMFADSLKHGINTSSGIVSELIHSKVGGEFYNYCGPFIDVRDVSKAHLVAIEKPECTGQRLVLSEGLFCCQEIVDILNEEFPQLKGKIATGEPATGPSFLEKNSCKFDNSKTKKLLGFQFYNLKDCIVDTAAQMLEVQNEA
B3: YGL039w: Saccharomyces cerevisiae carbonyl reductase homolog, SEQ ID NO: 21, expressed in E. coli from pSE-YGD9 (protein, listed as Saccharomyces cerevisiae)
chain: MTTEKTVVFVSGATGFIALHVVDDLLKTGYKVIGSGRSQEKNDGLLKKFKSNPNLSMEIVEDIAAPNAFDKVFQKHGKEIKVVLHIASPVHFNTTDFEKDLLIPAVNGTKSILEAIKNYAADTVEKVVITSSVAALASPGDMKDTSFVVNEESWNKDTWESCQANAVSAYCGSKKFAEKTAWDFLEENQSSIKFTLSTINPGFVFGPQLFADSLRNGINSSSAIIANLVSYKLGDNFYNYSGPFIDVRDVSKAHLLAFEKPECAGQRLFLCEDMFCSQEALDILNEEFPQLKGKIATGEPGSGSTFLTKNCCKCDNRKTKNLLGFQFNKFRDCIVDTASQLLEVQSKS

system: carbonyl reductase; assay: Substrate specificity: NADPH-dependent reduction by the carbonyl reductase obtained in Example 1; format: biochemical, Torulaspora delbrueckii; conditions: substrate 1 mM, coenzyme NADPH; reduction of 3,4-dimethoxyphenylacetone regarded as 100
Method: (§1) A reaction solution comprising 50 mM potassium phosphate buffer (pH 6.5), 0.2 mM NADPH, 5 mM 3,4-dimethoxyphenylacetone, and an enzyme is reacted at 30° C. Any decrease in absorbance at 340 nm accompanying a decrease in NADPH is measured. 1U is defined as the amount of enzyme which catalyzes a 1 μmol decrease of NADPH in one minute.
(§2) The enzyme obtained in Example 1 was reacted with various ketones, ketoesters, and soon. The activities of the reduction reactions were expressed as relative activities, where the reduction of 3,4-dimethoxyphenylacetone was regarded as 100 (Table 2) (substrate specificity of carbonyl reductase). The activity of dehydrogenating 1-(3,4-dimethoxyphenyl)-2-propanol was measured as follows: A reaction was performed at 30° C. in a reaction solution comprising 50 mM Tris-HCl buffer (pH 8.5), 2.5 mM NADP^+, 5 mM 1-(3,4-dimethoxyphenyl)-2-propanol, and the enzyme. An increase in absorbance at 340 nm, accompanying NADPH production, was measured. 1 U was defined as the amount of enzyme catalyzing the production of 1 μmol NADPH per minute. In addition, the activity of reducing NADH-dependent 3,4-dimethoxyphenylacetone was measured as follows: A reaction was performed at 30° C. in a reaction solution comprising 50 mM potassium phosphate buffer (pH 6.5), 0.2 mM NADH, 5 mM 3,4-dimethoxyphenylacetone, and the enzyme, and decrease in absorbance at 340 nm, accompanying decrease in NADH, was measured. 1 U was defined as the amount of enzyme catalyzing a decrease of 1 μmol NADH per minute.

| Molecule | Relative activity [%] |
| --- | --- |
| CC12CCC(C(=O)C1=O)C2(C)C (centres unmarked) [Camphorquinone] | 644 |

same assay, conditions: substrate 2 mM, coenzyme NADPH; reduction of 3,4-dimethoxyphenylacetone regarded as 100

| Molecule | Relative activity [%] |
| --- | --- |
| O=C(CCl)c1cccc(Cl)c1 [2-Chloro-1-(3′-chlorophenyl)ethanone] | 922 |

same assay, conditions: substrate 20 mM, coenzyme NADPH; reduction of 3,4-dimethoxyphenylacetone regarded as 100

| Molecule | Relative activity [%] |
| --- | --- |
| CCOC(=O)CC(=O)CCl [Ethyl 4-chloroacetoacetate] | 6780 |
| CCC(=O)C(C)=O [2,3-Pentanedione] | 2590 |
| CC(=O)C(C)=O [2,3-Butanedione] | 1480 |
| CC(=O)COC(C)=O [1-Acetoxy-2-propanone] | 24700 |
| COC(=O)CC(C)=O [Methyl acetoacetate] | 3670 |
| COC(=O)C(C)=O [Methyl pyruvate] | 1320 |
| CC(=O)c1ccccc1 [Acetophenone] | 256 |
| CC(=O)OC(C)C(C)=O (centres unmarked) [2-Acetoxy-3-butanone] | 589 |
| CCOC(=O)CC(C)=O [Ethyl acetoacetate] | 3170 |
| CC(=O)OC1CCCC1=O (centres unmarked) [2-Acetoxycyclopentanone] | 567 |
| CC(=O)COc1ccccc1 [Phenoxy-2-propanone] | 939 |
| COCC(C)=O [Methoxyacetone] | 117 |
| COC(=O)CC(=O)CCl [Methyl 4-chloroacetoacetate] | 8040 |
| CC(=O)CCc1ccccc1 [Benzylacetone] | 739 |
| CC(=O)CC(C)=O [2,4-Pentanedione] | 422 |
| CCC(=O)c1ccc(OC)cc1 [4′-Methoxypropiophenone] | 283 |

system: carbonyl reductase; assay: Activity of dehydrogenating 1-(3,4-dimethoxyphenyl)-2-propanol with NADP+; format: biochemical, Torulaspora delbrueckii; conditions: substrate 5 mM, coenzyme NADP+, dehydrogenation, pH 8.5, 30° C.
Method: as §2

| Molecule | Relative activity [%] |
| --- | --- |
| COc1ccc(C[C@@H](C)O)cc1OC [(R)-1-(3,4-dimethoxyphenyl)-2-propanol] | 0.0 |
| COc1ccc(C[C@H](C)O)cc1OC [(S)-1-(3,4-dimethoxyphenyl)-2-propanol] | 0.0 |

system: not listed separately; assay: 3,4-dimethoxyphenylacetone-reducing activity of cell-free extracts of transformed Escherichia coli; format: biochemical, Escherichia coli JM109; conditions: cell-free extracts of E. coli expressing the homolog
Method: as §1
Escherichia coli JM109 strain transformed with plasmid pSE-TDR1, which expresses carbonyl reductase, and plasmid pSG-TDR1, which coexpresses carbonyl reductase and Bacillus subtilis-derived glucose dehydrogenase, was cultured overnight at 30° C. in liquid LB medium containing ampicillin. 0.1 mM IPTG was added, and the strain was further cultured for four hours.
Cells were collected by centrifugation, and then suspended in 50 mM potassium phosphate buffer (pH 6.5) comprising 0.5 M NaCl, 0.02% 2-mercaptoethanol, 2 mM PMSF, and 10% glycerin. Cells were then disrupted by sonication, and centrifuged. The obtained supernatant was used as a cell-free extract. The 3,4-dimethoxyphenylacetone-reducing activity and glucose-dehydrogenating activity of the cell-free extract were measured. The glucose-dehydrogenating activity was measured as follows: Measurements were performed at 30° C. in a reaction solution comprising the enzyme and 100 mM potassium phosphate buffer (pH 6.5), 2.5 mM NAD^+, 100 mM glucose. 1 U was defined as the amount of enzyme to catalyze production of […] of NADH per minute under the aforementioned reaction conditions.
Escherichia coli JM109+strains comprising pSE-YGP7, pSE-YGD9, pSE-YDR1, pSG-YGP7, pSG-YGD9, or pSG-YDR1 were cultured on LB medium comprising ampicillin, induced with 0.1 mM IPTG for four hours, and then centrifuged to collect the cells.
Each of these cell samples was suspended in a cell lysis solution (50 mM KPB pH 8.0, 1 mM EDTA, 0.02% 2-mercaptoethanol, 2 mM PMSF, 10% Glycerol). The cells were ruptured by sonication and then centrifuged to obtain the supernatant, which was used as a cell-free extract.

| Molecule | 3,4-dimethoxyphenylacetone reductase activity (in words) |
| --- | --- |
| B1 | confirmed to comprise 3,4-dimethoxyphenylacetone reductase activity |
| B2 | confirmed to comprise 3,4-dimethoxyphenylacetone reductase activity |
| B3 | confirmed to comprise 3,4-dimethoxyphenylacetone reductase activity |

system: not listed separately; assay: Enzymatic synthesis of (S)-1-(3,4-dimethoxyphenyl)-2-propanol: optical purity and reaction yield; format: biochemical; conditions: 0.2 U homolog enzyme, 50 mM 3,4-dimethoxyphenylacetone, overnight, 25° C., pH 6.5
Method: A reaction was performed overnight at 25° C. in 1 mL of a reaction solution comprising 200 mM potassium phosphate buffer (pH 6.5), 1 mM NADP^+, 2 U glucose dehydroganase (Wako Pure Chemical Industries, Ltd.), 250 mM glucose, 0.25 U carbonyl reductase, and 50 mM 3,4-dimethoxyphenylacetone. The optical purity of the produced (S)-1-(3,4-dimethoxyphenyl)-2-propanol was measured as follows: One mL of ethyl acetate was added to 0.5 mL of the reaction solution to extract (S)-1-(3,4-dimethoxyphenyl)-2-propanol, and the extraction solvent was desolvated. 0.5 mL of a dissolving solution (n-hexane: isopropanol=4:1) was then added to dissolve the extract, which was then analyzed by liquid chromatography using an optical resolution column. CHIRALCEL OF (4.6 mm×25 cm; Daicel Chemical Industries, Ltd.) was used as the optical resolution column. Chromatography was performed with a wavelength of 220 nm, a flow rate of 1.0 mL/min, and at 40° C. using an eluting solution of n-hexane: isopropanol=4:1.
In addition, the (S)-1-(3,4-dimethoxyphenyl)-2-propanol thus-produced was quantified using gas chromatography, and a yield relative to the raw starting material, 3,4-dimethoxyphenylacetone, was obtained. Specifically, the analysis was performed at a column temperature of 210° C., using Thermon 3000 (10%)-Chromosorb W (AW-DMCS, Mesh 60–80; 3.2 mm×210 cm) with a hydrogen flame ionization detector (FID). The resulting reaction yield was about 95%.
To prepare crude enzyme solution for enzyme reaction, the crude enzyme solution prepared in Example 18 was concentrated ten-folds using a UF membrane. This solution was reacted overnight at 25° C. in 1 mL of a reaction solution comprising 200 mM potassium phosphate buffer (pH 6.5), 1 mM NADP^+, 2 U glucose dehydrogenase (Wako Pure Chemical Industries, Ltd.), 250 mM glucose, 0.2 U homolog enzyme, and 50 mM 3,4-dimethoxyphenylacetone. Optical purity was measured and the produced (S)-1-(3,4-dimethoxyphenyl)-2-propanol was quantified as in Example 6. As a result, YGL157w (pSE-YGP7) produced 93.7% ee (S)-1-(3,4-dimethoxyphenyl)-2-propanol at a yield of 66%, YGL039w (pSE-YGD9) produced 93.6% ee at a yield of 94%, and YDR541c (pSE-YDR1) produced 94.8% ee at a yield of 6%.

| Molecule | Optical purity of the produced (S)-1-(3,4-dimethoxyphenyl)-2-propanol [% ee] | Yield of (S)-1-(3,4-dimethoxyphenyl)-2-propanol [%] |
| --- | --- | --- |
| B1 | 94.8 | 6 |
| B2 | 93.7 | 66 |
| B3 | 93.6 | 94 |

Source: patent US7083962B2, “Carbonyl reductases, polynucleotides comprising DNA encoding the same, methods for producing the same, and methods for producing optically active alcohol utilizing the same” (Daicel Chemical Industries Ltd., priority 2004, dated 2006)
